Values after ≈ are worked out from the molar mass of the structure shown.

The experiment has as its system Vaccinia virus. Put plainly: Minimum inhibitory concentration required to reduce vaccinia virus-induced cytopathogenicity in primary rabbit kidney cell cultures. Format: functional. The conditions noted are these: Orthopoxvirus vaccinia. Background: Protection from cytopathic effect is a common read-out in antiviral testing.
In turn, `O=c1[nH]c(=O)n([C@H]2C[C@H](O)[C@@H](CO)O2)cc1/C=C\Br` showed an MIC of 4 µg/mL (≈ 12 µM).
Molecule `O=c1[nH]c(=O)n([C@H]2C[C@H](O)[C@@H](CO)O2)cc1/C=C/Br` [BRIVUDINE] came in with an MIC of 4 µg/mL (≈ 12 µM).
The molecule `O=c1[nH]c(=O)n([C@H]2C[C@H](O)[C@@H](CO)O2)cc1I` [IDOXURIDINE] came in with an MIC of 0.1 µg/mL (≈ 0.282 µM).

(Values after ChEMBL document CHEMBL1121647, “Synthesis and antiviral properties of (Z)-5-(2-bromovinyl)-2'-deoxyuridine” (1981).)
